Data on two compounds can be found in publication PMC10334834, “A de novo dual-targeting supramolecular self-assembly peptide against pulmonary metastasis of melanoma” (Theranostics, 2023).

Entries after “also recorded” stand apart in the source; their conditions may differ. Read-outs that look alike come from different tables or passages of the source.

By IC50 is commonly meant the concentration needed to halve the response being measured.

A short description of series [1]: Self-assembly into nanospheres observed by TEM. The class given is physicochemical. As to conditions: peptide alone without CA. The source says:
The hydrophobic tails of HBB^plus interact and gather together, forming a hydrophobic core. At the same time, the hydrophilic head interacts with water molecules to wrap around the core, forming a stable micelle structure. The hydrophobic drug CA will be encapsulated in the hydrophobic area of the micelles during micellar assembly. CA is immobilized inside the micelles by interacting with the hydrophobic tails of the micelles (hydrophobic interactions and hydrogen bonding) (Figure 1D). We used the GROMACS 2018.3 software package and combined it with the MARTINI coarse-grained model (version 2.2) to conduct dynamics simulations on a system composed of 24× HBB^plus peptide molecules and 100× CA molecules in an aqueous solution during 5000 ns. […] To verify it, CA was mixed with HBB^plus in mass ratios ranging from 4:1 to 0.25:1. […] Furthermore, there was a strong positive correlation between the concentration of CA and particle size (Figure 1E). […]
Zetasizer Nano ZS system). The surface chemical structure of modified nanocrystals was evaluated […]
The in vitro cell viability was measured […]

The next series deals with B16F10 lung metastasis. In words: Ex vivo fluorescence biodistribution in mice with pulmonary metastatic melanoma. The conditions noted are these: Cy5-SE labelled, i.v. 200 μL (1 mg/mL), tumor-bearing C57BL/6 mice, organs at 12 h and 24 h.
The next series concerns p-ERK1/2. In words: Western blot, p-ERK1/2. As to conditions: B16F10 cells. It counts as cell-based, mouse. (A western blot detects proteins with antibodies after separation by electrophoresis.)
For series [2], the system named is B16F10 cells. In words: Cell clone formation assay. It counts as cell-based, mouse. The conditions noted are these: 7 days of drug treatment.
Series [3] concerns B16F10 cells. In words: Cell apoptosis by flow cytometry (FITC Annexin V/PI). The class given is cell-based, mouse. As to conditions: 40 μM, 24 h. As for the experimental part: (§1) Scratch wound healing assay […]
(§2) monolayer with a pipette tip (100 μL). The monolayer membrane was washed with PBS three times, […]
(§3) Detection Kit (BD Falco, China). […]
(§4) for 24 h at a concentration of 40 μM.
(§5) FITC-labeled HBB, HBBplus, and […]
(§6) it for 10 min. […] DAPI (Sigma-Aldrich,
(§7) Finally, a super-resolution confocal microscope was used to observe the cell uptake situation.

Series [4] concerns B16F10 cells. In words: Scratch wound healing assay. The class given is cell-based, mouse. The conditions noted are these: 60 μM, 24 h, 1% FBS; for migration rate: Image J, triplicate. On the procedure:
(§8) As a next step, we tested the ability of supramolecular peptides to prevent tumor cell migration and invasion. […] Meanwhile, a scratch wound was harvested as part of the migration assay, and the healing process was observed. Based on a digital image, the areas of scratching without cells immediately following scratching and those of scratching without cells after the assay was calculated. […] We observed the same results in the transwell migration assay. Furthermore, tumor cells' invasive abilities play a critical role in metastasis. Using a transwell invasion assay (Figure 4G), we assessed the ability of HBB^plus@CA to inhibit tumor cell invasion.
as §1, §2, §3, §4, §5, §6, §7

For series [5], the system named is B16F10 cells. In words: Transwell migration and invasion assays. It counts as cell-based, mouse. The conditions noted are these: 30 μM, 24h-48h. On the procedure:
as §8
performed on a Talos F200X.
The hydrodynamic size distribution (1
Zetasizer Nano ZS system). The surface chemical structure of modified nanocrystals was evaluated
(Shimadzu 3000 spectrophotometer). The structural identification of modified nanocrystals was
and 100 μg/mL streptomycin.
The in vitro cell viability was measured
containing 15% FBS medium for 24h -48h. Cells that migrated or invaded across the membrane

Series [6] has as its system B16F10 pulmonary metastasis of melanoma. In words: Lung metastasis model of melanoma. The class given is in vivo. As to conditions: 5×10^5 B16F10 cells i.v., 4 mg/kg every other day, six cycles, day 24, n = 5, mean ± s.d.; PBS group 94 ± 41.
For series [7], the system named is B16F10 cells. In words: Cell viability, Alamar blue. Background: The colour change of resazurin is a common sign of viable cells or microbes.
Method: (§9) To explore the antitumor properties of HBB^plus@CA at the cellular level, we measured the viability of B16F10 cells after treatment with HBB^plus@CA.
(§10) Mouse melanoma cell line B16F10, mouse macrophage cell line RAW 264.7, and human leukemic
(§11) T-cell line Jurkat were obtained from the Chinese Academy of Science Cell Bank (Shanghai, China).
(§12) B16F10 and RAW 264.7 cells were maintained in DMEM medium, Jurkat was cultured in RPMI-
(§13) 1640 medium, and the above mediums were supplemented with 10% FBS, 100 U/mL penicillin,
(§14) and 100 μg/mL streptomycin. All cells were maintained at 37°C in an atmosphere of 5% CO2.
(§15) Melanoma cells B16F10 were inoculated uniformly in 96 empty plates according to 2000 cells.
(§16) After 24 h, different gradient concentrations of HBB plus@CA or CA, HBB, or RGDSP-X were
(§17) intervened at 37°C in an atmosphere of 5% CO 2 for 72 h. The in vitro cell viability was measured
(§18) using a standard Alamar blue (Thermo Fisher Scientific, China) assay in the B16F10 cell s.
The test system of series [8] is Ki-67, β-catenin, np β-catenin, Cyclin D1, c-Myc, p-ERK1/2, N-cadherin, E-cadherin. In words: Immunohistochemistry of tumor-bearing lung sections. The conditions noted are these: 4 mg/kg, six cycles, score I × A, n = 5, control scored 8.3.
Method: All samples were assayed in triplicate.
Construct a lung metastasis model of melanoma
The lung metastasis model o f melanoma was constructed as follows: B16F10 cells (5 × 10^5 cells per
100 µL) were transplanted into healthy C57BL/6 mice by intravenous injection at 5 -6 weeks of age.
After 3 days, the mice were randomly divided into the PBS control group, CA group (4 mg/kg),
HBBplus group (4 mg/kg), HBBplus@CA group (4 mg/ kg), HBBplus + CA group (4 mg/ kg) tail-vein
injected, every other day, summed six cycles. The experiment was terminated, and the mice were
euthanized. For histological examination, the tumor, liver, k idney, heart, spleen , and lung tissues
were fixed with formaldehyde, dehydrated, sliced into 4 μm sections, and subjected to H&E or
immunohistochemical staining.
H&E and immunohistochemistry (IHC) staining
Tumor-bearing lungs and primary organ tissues were dissected and immersed in formalin solution.
Then they were paraffin-embedded, sectioned with a 4 μm thick. Nextly, the sections were stained
with hematoxylin-eosin (H&E) according to standard histopathological techniques. Besides, under
conventional immunohistochemical staining, the expression of Ki -67 (Proteintech, USA; 1: 400),
β-catenin (Thermo Fisher, China; 1: 2000), np β-catenin (Cell Signaling Technology, USA; 1: 100), […]
1: 500) in tumor-bearing lungs sections were detected. […]
Series [9] can be described thus: Acute toxicity test in vivo. The conditions noted are these: healthy C57BL/6 mice; for body weight: every other day, six cycles.
Series [10] deals with β-catenin, np-β-catenin, c-Myc. In words: Western blot, Wnt/β-catenin pathway proteins. It counts as cell-based, mouse. As to conditions: B16F10 cells, 24 h.
The test system of series [11] is B16F10 cells.
Method: as §9, §10, §11, §12, §13, §14, §15, §16, §17, §18

With RGDSPENPRLLGNVLVCVLA [HBB^plus], the self-assembly into nanospheres result in series [1] is reported as “incapable of undergoing such a process”. The “tumor accumulation (biodistribution)” value in the series with B16F10 lung metastasis is on record as “superior tumor accumulation compared to HBB”. Moreover, in the series on p-ERK1/2, the “level of p-ERK1/2” value is listed as “reduced the level; also recorded: significantly down-regulated”. Further, the clone formation result in the series with B16F10 cells [2] is given as “more potent antiproliferative activity”. Also, the “apoptosis of tumor cells” value in the series on B16F10 cells [3] is listed as “significantly effective in increasing the apoptosis”. Besides, in the series with B16F10 cells [4], the “migration in scratch assay” value is recorded as “inhibited the migration” and the migration rate was ~ 36%. Further, the “transwell migration and invasion” value in the series with B16F10 cells [5] was “inhibited the migration”. Further, in [6], the “number of metastatic lung foci” value amounted to 32 ± 12 per lung. Also, in the series with B16F10 cells [7] (B16F10 cells, 72 h, Alamar blue), the “cytotoxicity / antiproliferative activity” value was “more potent antiproliferative activity”. For the same compound, the “Ki-67 expression score (IHC)” value in series [8] is 6.2.
`CC(C)c1cc2c(c(O)c1O)[C@@]1(C(=O)O)CCCC(C)(C)[C@@H]1CC2` [CA, carnosic acid]: in series [9] (4-40 mg/kg), the “renal function tests (urea nitrogen, creatinine)” value was “did not cause severe nephrotoxicity”. Moreover, in series [9] (4-40 mg/kg, n = 3/group, versus controls), the “RBC, WBC, PLT, HGB, GRAN, Mon, Lymph in blood” value is on record as “neither HBB^plus@CA nor CA affected”. Moreover, the body weight result in [9] (5× doses (20 mg/kg)) and in series [9] (10× doses (40 mg/kg)) was “notable weight loss” each time. Besides, the “ALT and AST (liver function)” value in series [9] (10× doses (40 mg/kg)) is “elevations of ALT and AST”. In addition, the “H&E staining of lung tissue” value in series [9] (low-dose and high-dose groups) is “inflammatory cell infiltration”. Moreover, in series [9] (up to high dose, ELISA, n = 3/group), the “TNF-α, IFN-γ and EPO levels of peripheral blood” value is given as “did not significantly increase”. In addition, in series [10], the “β-catenin, np-β-catenin and c-Myc protein expression” value was “significantly downregulated”. Further, the clone formation result with B16F10 cells [2] was “significantly reduced the number of clones”. Besides, the migration rate with B16F10 cells [4] is ~ 27%. In addition, the “number of metastatic lung foci” value in series [6] came to 37 ± 10 per lung. The “cytotoxicity / antiproliferative activity” value with B16F10 cells [11] was “concentration-dependent cytotoxicity”. The half-maximal inhibitory concentration (IC50) in the series on B16F10 cells [7] (Mus musculus, B16-F10, 72 h, read-out: IC50 (cell viability)) was determined as 29.2 ± 4.68 µM. Further, in series [8], the “Ki-67 expression score (IHC)” value came out at 5.7.
